Active and inactive are the calls of the source. No cut-off for these calls is given here.
What was measured:
[1] = test system: NCI-H157; experiment: Cytotoxicity against human NCI-H157 cells at 100 uM after 48 hrs by sulforhodamine B assay; format: functional
[2] = test system: NCI-H157; experiment: Cytotoxicity against human NCI-H157 cells at 10 uM after 48 hrs by sulforhodamine B assay; format: functional
[3] = test system: NCI-H157; experiment: Cytotoxicity against human NCI-H157 cells at 1 uM after 48 hrs by sulforhodamine B assay; format: functional
[4] = test system: NCI-H157; experiment: Cytotoxicity against human NCI-H157 cells at 0.1 uM after 48 hrs by sulforhodamine B assay; format: functional
[5] = test system: Leishmania major; experiment: Antileishmanial activity against Leishmania major promastigotes at 100 uM after 72 hrs by MTT assay relative to control; format: functional
[6] = test system: Leishmania major; experiment: Antileishmanial activity against Leishmania major promastigotes at 10 uM after 72 hrs by MTT assay relative to control; format: functional
[7] = test system: Leishmania major; experiment: Antileishmanial activity against Leishmania major promastigotes at 1 uM after 72 hrs by MTT assay relative to control; format: functional
[8] = test system: Leishmania major; experiment: Antileishmanial activity against Leishmania major promastigotes at 0.1 uM after 72 hrs by MTT assay relative to control; format: functional
[9] = test system: Klebsiella pneumoniae; experiment: Antibacterial activity against Klebsiella pneumoniae assessed as zone of inhibition after 24 to 48 hrs by well diffusion method; format: functional
[10] = test system: Streptococcus pyogenes; experiment: Antibacterial activity against Streptococcus pyogenes assessed as zone of inhibition after 24 to 48 hrs by well diffusion method; format: functional
[11] = test system: Staphylococcus epidermidis; experiment: Antibacterial activity against Staphylococcus epidermidis assessed as zone of inhibition after 24 to 48 hrs by well diffusion method; format: functional
[12] = test system: Staphylococcus aureus; experiment: Antibacterial activity against Staphylococcus aureus assessed as zone of inhibition after 24 to 48 hrs by well diffusion method; format: functional
[13] = test system: Serratia marcescens; experiment: Antibacterial activity against Serratia marcescens assessed as zone of inhibition after 24 to 48 hrs by well diffusion method; format: functional
[14] = test system: Pseudomonas aeruginosa; experiment: Antibacterial activity against Pseudomonas aeruginosa assessed as zone of inhibition after 24 to 48 hrs by well diffusion method; format: functional
[15] = test system: Escherichia coli; experiment: Antibacterial activity against Escherichia coli assessed as zone of inhibition after 24 to 48 hrs by well diffusion method; format: functional
[16] = test system: Klebsiella pneumoniae; experiment: Antibacterial activity against Klebsiella pneumoniae assessed as zone of inhibition by measuring activity index after 24 to 48 hrs by well diffusion method relative to tetracycline; format: functional, organism-based
[17] = test system: Klebsiella pneumoniae; experiment: Antibacterial activity against Klebsiella pneumoniae assessed as zone of inhibition by measuring activity index after 24 to 48 hrs by well diffusion method relative to ampicillin; format: functional, organism-based
[18] = test system: Klebsiella pneumoniae; experiment: Antibacterial activity against Klebsiella pneumoniae assessed as zone of inhibition by measuring activity index after 24 to 48 hrs by well diffusion method relative to amoxicillin; format: functional, organism-based
[19] = test system: Staphylococcus epidermidis; experiment: Antibacterial activity against Staphylococcus epidermidis assessed as zone of inhibition by measuring activity index after 24 to 48 hrs by well diffusion method relative to penicillin G; format: functional, organism-based
[20] = test system: Staphylococcus epidermidis; experiment: Antibacterial activity against Staphylococcus epidermidis assessed as zone of inhibition by measuring activity index after 24 to 48 hrs by well diffusion method relative to ampicillin; format: functional, organism-based
[21] = test system: Serratia marcescens; experiment: Antibacterial activity against Serratia marcescens assessed as zone of inhibition by measuring activity index after 24 to 48 hrs by well diffusion method relative to penicillin G; format: functional
[22] = test system: Serratia marcescens; experiment: Antibacterial activity against Serratia marcescens assessed as zone of inhibition by measuring activity index after 24 to 48 hrs by well diffusion method relative to ampicillin; format: functional
[23] = test system: Serratia marcescens; experiment: Antibacterial activity against Serratia marcescens assessed as zone of inhibition by measuring activity index after 24 to 48 hrs by well diffusion method relative to amoxicillin; format: functional
[24] = test system: Pseudomonas aeruginosa; experiment: Antibacterial activity against Pseudomonas aeruginosa assessed as zone of inhibition by measuring activity index after 24 to 48 hrs by well diffusion method relative to tetracycline; format: functional, organism-based
[25] = test system: Pseudomonas aeruginosa; experiment: Antibacterial activity against Pseudomonas aeruginosa assessed as zone of inhibition by measuring activity index after 24 to 48 hrs by well diffusion method relative to penicillin G; format: functional, organism-based
[26] = test system: Pseudomonas aeruginosa; experiment: Antibacterial activity against Pseudomonas aeruginosa assessed as zone of inhibition by measuring activity index after 24 to 48 hrs by well diffusion method relative to amoxicillin; format: functional, organism-based
[27] = test system: Escherichia coli; experiment: Antibacterial activity against Escherichia coli assessed as zone of inhibition by measuring activity index after 24 to 48 hrs by well diffusion method relative to tetracycline; format: functional
[28] = test system: DNA; experiment: Binding affinity to single-stranded DNA (unknown origin) after 10 mins by UV-visible spectrometric method; format: nucleic-acid assay
[29] = test system: NCI-H157; experiment: Cytotoxicity against human NCI-H157 cells after 48 hrs by sulforhodamine B assay; format: functional, cell-based
[30] = test system: DNA; experiment: Binding affinity to single-stranded DNA (unknown origin) assessed as red shift up to 72 uM after 10 mins by UV-visible spectrometric method; format: nucleic-acid assay
[31] = test system: Klebsiella pneumoniae; experiment: Antibacterial activity against Klebsiella pneumoniae assessed as zone of inhibition by measuring activity index after 24 to 48 hrs by well diffusion method relative to penicillin G; format: functional, organism-based
[32] = test system: Streptococcus pyogenes; experiment: Antibacterial activity against Streptococcus pyogenes assessed as zone of inhibition by measuring activity index after 24 to 48 hrs by well diffusion method relative to tetracycline; format: functional, organism-based
[33] = test system: Streptococcus pyogenes; experiment: Antibacterial activity against Streptococcus pyogenes assessed as zone of inhibition by measuring activity index after 24 to 48 hrs by well diffusion method relative to penicillin G; format: functional, organism-based
[34] = test system: Streptococcus pyogenes; experiment: Antibacterial activity against Streptococcus pyogenes assessed as zone of inhibition by measuring activity index after 24 to 48 hrs by well diffusion method relative to ampicillin; format: functional, organism-based
[35] = test system: Streptococcus pyogenes; experiment: Antibacterial activity against Streptococcus pyogenes assessed as zone of inhibition by measuring activity index after 24 to 48 hrs by well diffusion method relative to amoxicillin; format: functional, organism-based
[36] = test system: Staphylococcus epidermidis; experiment: Antibacterial activity against Staphylococcus epidermidis assessed as zone of inhibition by measuring activity index after 24 to 48 hrs by well diffusion method relative to tetracycline; format: functional, organism-based
[37] = test system: Staphylococcus epidermidis; experiment: Antibacterial activity against Staphylococcus epidermidis assessed as zone of inhibition by measuring activity index after 24 to 48 hrs by well diffusion method relative to amoxicillin; format: functional, organism-based
[38] = test system: Staphylococcus aureus; experiment: Antibacterial activity against Staphylococcus aureus assessed as zone of inhibition by measuring activity index after 24 to 48 hrs by well diffusion method relative to tetracycline; format: functional, organism-based
[39] = test system: Staphylococcus aureus; experiment: Antibacterial activity against Staphylococcus aureus assessed as zone of inhibition by measuring activity index after 24 to 48 hrs by well diffusion method relative to penicillin G; format: functional, organism-based
[40] = test system: Staphylococcus aureus; experiment: Antibacterial activity against Staphylococcus aureus assessed as zone of inhibition by measuring activity index after 24 to 48 hrs by well diffusion method relative to ampicillin; format: functional, organism-based
[41] = test system: Staphylococcus aureus; experiment: Antibacterial activity against Staphylococcus aureus assessed as zone of inhibition by measuring activity index after 24 to 48 hrs by well diffusion method relative to amoxicillin; format: functional, organism-based
[42] = test system: Pseudomonas aeruginosa; experiment: Antibacterial activity against Pseudomonas aeruginosa assessed as zone of inhibition by measuring activity index after 24 to 48 hrs by well diffusion method relative to ampicillin; format: functional, organism-based
[43] = test system: Escherichia coli; experiment: Antibacterial activity against Escherichia coli assessed as zone of inhibition by measuring activity index after 24 to 48 hrs by well diffusion method relative to penicillin G; format: functional, organism-based
[44] = test system: Escherichia coli; experiment: Antibacterial activity against Escherichia coli assessed as zone of inhibition by measuring activity index after 24 to 48 hrs by well diffusion method relative to ampicillin; format: functional, organism-based
[45] = test system: Escherichia coli; experiment: Antibacterial activity against Escherichia coli assessed as zone of inhibition by measuring activity index after 24 to 48 hrs by well diffusion method relative to amoxicillin; format: functional, organism-based

| Substance | Activity [1] [%] | Activity [2] [%] | Activity [3] [%] | Activity [4] [%] | Activity [5] [%] | Activity [6] [%] | Activity [7] [%] | Activity [8] [%] | inhibition zone (IZ) [9] | inhibition zone (IZ) [10] | inhibition zone (IZ) [11] | inhibition zone (IZ) [12] | inhibition zone (IZ) [13] [mm] | inhibition zone (IZ) [14] | inhibition zone (IZ) [15] | Activity index [21] | Activity index [22] | Activity index [23] | Activity [29] | Activity index [36] | further results |
| --- | --- | --- | --- | --- | --- | --- | --- | --- | --- | --- | --- | --- | --- | --- | --- | --- | --- | --- | --- | --- | --- |
| (1,10-Phenanthroline) trimethylstannyl 2-(4-methoxy-2-nitrophenylcarbamoyl)benzoate | 55.5 | 52.4 | 47.1 | 44 | 52.7 | 58.4 | 57.9 | 56.2 | 27.7 mm | 15 mm | inactive | 5.66 mm | 20 | 11.3 mm | 20.7 mm | 2.5 | 2.5 | 3.34 | Dose-dependent effect |  | Activity index [16]: 1.98; Activity index [17]: 4.61; Activity index [18]: 4.61; Activity_index [19]: inactive; Activity_index [20]: inactive; Activity index [24]: 1.89; Activity index [25]: 1.89; Activity index [26]: 1.89; Activity index [27]: 10.3; K [28]: 2.5 ×10⁴ /M; Activity [30]: < 3 nm |
| (2,2'-Bipyridine) trimethylstannyl 2-(4-methoxy-2-nitrophenylcarbamoyl)benzoate | 63.2 | 59.9 | 57.8 | 56.7 | 56.6 | 50.9 | 44.3 | 39.2 | inactive | inactive | 23.3 mm | 19.3 mm | 19.3 | 20.3 mm | 17.7 mm | 2.42 | 2.42 | 3.22 | Dose-dependent effect | 2.33 | Activity_index [31]: inactive; Activity_index [32]: inactive; Activity_index [33]: inactive; Activity_index [34]: inactive; Activity_index [35]: inactive; Activity index [37]: 11.7; Activity index [24]: 3.39; Activity index [25]: 3.39; Activity index [26]: 3.39; Activity index [27]: 8.83; K [28]: 1.2 ×10⁴ /M; Activity [30]: < 3 nm |
| Dioctylstannanediyl bis 2-(4-methoxy-2-nitrophenylcarbamoyl)benzoate | 63.7 | 59.1 | 54.3 | 48.9 | 58.8 | 55.2 | 47.1 | 42.9 | 22.3 mm | 12 mm | 11.3 mm | inactive | 5 | inactive | inactive | 0.63 | 0.63 | 0.84 | Dose-dependent effect | 1.13 | Activity index [16]: 1.59; Activity index [17]: 3.72; Activity index [18]: 3.72; Activity index [37]: 5.67; Activity_index [38]: inactive; Activity_index [39]: inactive; Activity_index [40]: inactive; Activity_index [41]: inactive; Activity_index [42]: inactive; Activity_index [43]: inactive; Activity_index [44]: inactive; Activity_index [45]: inactive |
| Divinylstannanediyl bis 2-(4-methoxy-2-nitrophenylcarbamoyl)benzoate | 64.3 | 61 | 58.3 | 55.4 | 60.9 | 55.4 | 48.8 | 43.3 | inactive | inactive | 14.2 mm | inactive | 11 | inactive | inactive | 1.37 | 1.37 | 1.84 | Dose-dependent effect | 1.42 | Activity_index [31]: inactive; Activity_index [32]: inactive; Activity_index [33]: inactive; Activity_index [34]: inactive; Activity_index [35]: inactive; Activity index [37]: 7.11; Activity_index [38]: inactive; Activity_index [39]: inactive; Activity_index [40]: inactive; Activity_index [41]: inactive; Activity_index [42]: inactive; Activity_index [43]: inactive; Activity_index [44]: inactive; Activity_index [45]: inactive |
